Test results: patent publication US10253007B2, “Taxanes compounds, preparation method therefor, and uses thereof” (Jiangsu Tasly Diyi Pharmaceutical Co., Ltd., priority 2013, dated 2019)
Where two headings read alike, the source gives them in different places.

Experiments:
[1] = MTT assay, proliferation inhibition; assay type: cell-based; conditions: Homo sapiens, LN-18 gastric cancer, read-out: Proliferation inhibition rate
Text: (§1) 1. Cytotoxicity Assay Using Human Tumor Cell Lines
(§2) Paclitaxel was used as the positive drug.

A2780 ovarian cancer = assay: MTT assay, proliferation inhibition; assay type: cell-based; conditions: Homo sapiens, read-out: Proliferation inhibition rate
Text: as §1, §2

A375 melanoma = assay: MTT assay, proliferation inhibition; assay type: cell-based; conditions: Homo sapiens, A-375, read-out: Proliferation inhibition rate
Text: as §1, §2

[2] = test system: A549 non-small cell lung cancer; assay: MTT assay, proliferation inhibition; assay type: cell-based; conditions: Homo sapiens, read-out: Proliferation inhibition rate
Text: as §1, §2

B16 melanoma = assay: MTT assay, proliferation inhibition; assay type: cell-based; conditions: read-out: Proliferation inhibition rate
Text: as §1, §2

BGC-823 gastric cancer = assay: MTT assay, proliferation inhibition; assay type: cell-based; conditions: Homo sapiens, read-out: Proliferation inhibition rate
Text: as §1, §2

DU145 prostate cancer = assay: MTT assay, proliferation inhibition; assay type: cell-based; conditions: Homo sapiens, DU-145, read-out: Proliferation inhibition rate
Text: as §1, §2

HCT 116 colon cancer = assay: MTT assay, proliferation inhibition; assay type: cell-based; conditions: Homo sapiens, read-out: Proliferation inhibition rate
Text: as §1, §2

HL60 leukemia = assay: MTT assay, proliferation inhibition; assay type: cell-based; conditions: Homo sapiens, HL-60, read-out: Proliferation inhibition rate
Text: as §1, §2

HT29 colon cancer = assay: MTT assay, proliferation inhibition; assay type: cell-based; conditions: Homo sapiens, HT-29, read-out: Proliferation inhibition rate
Text: as §1, §2

HeLa cervical cancer = assay: MTT assay, proliferation inhibition; assay type: cell-based; conditions: Homo sapiens, read-out: Proliferation inhibition rate
Text: as §1, §2

K562 leukemia = assay: MTT assay, proliferation inhibition; assay type: cell-based; conditions: Homo sapiens, read-out: Proliferation inhibition rate
Text: as §1, §2

LNCaP prostate cancer = assay: MTT assay, proliferation inhibition; assay type: cell-based; conditions: Homo sapiens, read-out: Proliferation inhibition rate
Text: as §1, §2

MCF-7 breast cancer = assay: MTT assay, proliferation inhibition; assay type: cell-based; conditions: Homo sapiens, MCF7, read-out: Proliferation inhibition rate
Text: as §1, §2

MDA-MB-436 breast cancer = assay: MTT assay, proliferation inhibition; assay type: cell-based; conditions: Homo sapiens, read-out: Proliferation inhibition rate
Text: as §1, §2

[3] = test system: NCI-H460 non-small cell lung cancer; assay: MTT assay, proliferation inhibition; assay type: cell-based; conditions: Homo sapiens, read-out: Proliferation inhibition rate
Text: as §1, §2

[4] = test system: breast cancer cell line MCF-7; assay: IC50 values on breast cancer cell line MCF-7; assay type: cell-based; conditions: Homo sapiens, MCF7, 72 h
Text: From the activity evaluation data of the above-mentioned preliminary screen, it can be seen that the series of taxanes derivatives synthesized in the present invention have activity (although the activity of PCMI-43 is weakened). Afterward, most of the compounds are picked up from these derivatives to examine their IC50 values on breast cancer cell line MCF-7. Paclitaxel is used as the positive control drug. Experiments for each compound were independently repeated for three times and multiple holes were used in each experiment. The exposure time of drugs was 72 hours.

Caco-2 cell monolayer [5] = conditions: human
Text: (§3) Caco-2 Cell Monolayer Membrane Transport Assay
(§4) Human-derived colorectal adenocarcinoma cell line Caco-2 cell monolayer model was used to study the bidirectional transport of the target compounds from the apical (AP) side to the basolateral (BL) side and from BL side to AP side. HPLC was used for quantitative analysis to calculate transport parameters, apparent permeability coefficient (Papp) and the efflux ratio.

[6] = reported value for paclitaxel; cited from earlier work
in vitro = conditions: human, Caco-2, Papp A-B, Mean
Text: as §3, §4

16 cancer cell lines = assay: Preliminary cytotoxicity evaluation on 16 cancer cell lines (MTT); assay type: cell-based, human; conditions: preliminary screen at 1 μM, compared with paclitaxel
Text: as §1, §2
In both cancer cell lines of A549 and B16, the cytotoxicity of the taxanes derivatives is slightly lower than that of the positive control drug.

[7] = Caco-2 cell monolayer membrane transport assay; conditions: human; for recovery: Caco-2, Recovery rate in mass
Text: as §3, §4

Caco-2 cell monolayer [8] = assay: Caco-2 cell monolayer membrane transport assay
Text: as §3, §4

[9] = Caco-2, Papp A-B, Caco-2 cell line (21 days), bidirectional transport, Table 5
[10] = Caco-2, Papp A-B, Mean, Caco-2, A-B, mean of two samples
[11] = Caco-2, Papp A-B, Sample-01, Caco-2, A-B, Sample-01
[12] = Caco-2, Papp A-B, Sample-02, Caco-2, A-B, Sample-02
[13] = Mean, Caco-2, A-B, mean of two samples
[14] = Sample-01, Caco-2, A-B, Sample-01
[15] = Sample-02, Caco-2, A-B, Sample-02
[16] = Caco-2 cell line (21 days), bidirectional transport, Table 5

Structure (SMILES) | inhibition at 1 µM [1] [%] | inhibition at 1 µM (A2780 ovarian cancer) [%] | inhibition at 1 µM (A375 melanoma) [%] | inhibition at 1 µM [2] [%] | inhibition at 1 µM (B16 melanoma) [%] | inhibition at 1 µM (BGC-823 gastric cancer) [%] | inhibition at 1 µM (DU145 prostate cancer) [%] | inhibition at 1 µM (HCT 116 colon cancer) [%] | inhibition at 1 µM (HL60 leukemia) [%] | inhibition at 1 µM (HT29 colon cancer) [%] | inhibition at 1 µM (HeLa cervical cancer) [%] | inhibition at 1 µM (K562 leukemia) [%] | inhibition at 1 µM (LNCaP prostate cancer) [%] | inhibition at 1 µM (MCF-7 breast cancer) [%] | inhibition at 1 µM (MDA-MB-436 breast cancer) [%] | inhibition at 1 µM [3] [%] | Papp A→B [7, 10] [×10⁻⁶ cm/s] | Papp A→B [7, 11] [×10⁻⁶ cm/s] | Papp A→B [7, 12] [×10⁻⁶ cm/s] | recovery [7, 13] [%] | other results
CC(=O)O[C@H]1C(=O)[C@@]2(C)[C@H]([C@H](OC(=O)c3ccccc3)[C@]3(O)C[C@H](OC(=O)[C@H](O)[C@@H](NC(=O)c4ccccc4)c4ccccc4)C(C)=C1C3(C)C)[C@]1(OC(C)=O)CO[C@@H]1C[C@@H]2O [Paclitaxel, reference compound] | 94.5 | 96.7 | 96.2 | 81.6 | 84 | 92.5 | 90.6 | 70.4 | 96.8 | 88.4 | 101 | 96.6 | 87.1 | 94.2 | 83.1 | 87.5 | – | – | – | – | IC50 ([4]; MCF-7, exposure 72 hours, mean±SD of three independent experiments, read-out: MCF-7(IC50)): ~7.05 nM; Papp A-B (Caco-2 cell monolayer [5]): 0.97 10^−6 cm/s; Papp B-A (Caco-2 cell monolayer [5]): 33.39 10^−6 cm/s; efflux ratio (Caco-2 cell monolayer [5]): 34.38; reported absolute oral bioavailability [6]: less than 5%; Papp A→B (in vitro): 0.97 ×10⁻⁶ cm/s
CO[C@H]1C(=O)[C@]2(C)C=C[C@@H](O)[C@](CO)(OC(C)=O)[C@H]2[C@H](OC(=O)c2ccccc2)[C@]2(O)C[C@H](OC(=O)[C@H](O)[C@@H](NC(=O)OC(C)(C)C)c3ccccc3)C(C)=C1C2(C)C [PCMI-44] | 89.8 | 95.6 | 93.9 | 75.9 | 75.3 | 90.8 | 89.2 | 67.1 | 96.3 | 88.3 | 99.3 | 94.4 | 86.9 | 95.2 | 82.7 | 85.2 | 5.83 | 5.28 | 6.39 | 95.8 | IC50 ([4]; read-out: MCF-7(IC50, nM)): 10.9 ± 0.16 nM; cytotoxicity (in words) (16 cancer cell lines): remains good cytotoxicity; Papp B→A ([7]; Caco-2): 27.2 ×10⁻⁶ cm/s; efflux ratio ([7]; Caco-2): 4.76; Papp A→B [7, 9]: 5.72 ×10⁻⁶ cm/s; recovery [7, 14]: 85.7%; recovery [7, 15]: 106%
CO[C@H]1C(=O)[C@]2(C)C=C[C@@H](O)[C@](CO)(OC(C)=O)[C@H]2[C@H](OC(=O)c2ccccc2)[C@]2(O)C[C@H](OC(=O)[C@H](O)[C@@H](NC(=O)c3ccccc3)c3ccccc3)C(C)=C1C2(C)C [PCMI-43] | 73.2 | 70 | 77.8 | 53.9 | 13.3 | 38.2 | 63.4 | 46.1 | 76.3 | 36.4 | 52 | 80.9 | 61.2 | 68.3 | 35.7 | 62.1 | 3.05 | 3.21 | 2.89 | 72 | cytotoxicity (in words) (16 cancer cell lines): weakened; recovery [7, 14]: 76.6%; recovery [7, 15]: 67.5%
COC(=O)O[C@H]1C[C@H]2OC[C@@]2(OC(C)=O)[C@H]2[C@H](OC(=O)c3ccccc3)[C@]3(O)C[C@H](OC(=O)[C@H](O)[C@H](CC(C)C)NC(=O)OC(C)(C)C)C(C)=C([C@@H](OC)C(=O)[C@]12C)C3(C)C [PCMI-39] | 94.1 | 94.9 | 90.2 | 67.4 | 72.3 | 91.7 | 84.9 | 57.1 | 99.1 | 88.4 | 100 | 92.2 | 82.8 | 100 | 78.4 | 81.6 | 7.47 | 6.13 | 8.81 | 64.2 | IC50 ([4]; read-out: MCF-7(IC50, nM)): 2.81 ± 0.02 nM; recovery [7, 14]: 71.7%; recovery [7, 15]: 56.7%; Papp A-B (Caco-2 cell monolayer [8]; [16]): 7.16 10^−6 cm/s; Papp B-A (Caco-2 cell monolayer [8]; [16]): 36.37 10^−6 cm/s
CO[C@H]1C(=O)[C@]2(C)[C@@H](OC(=O)N(C)C)C[C@H]3OC[C@@]3(OC(C)=O)[C@H]2[C@H](OC(=O)c2ccccc2)[C@]2(O)C[C@H](OC(=O)[C@H](O)[C@H](CC(C)C)NC(=O)OC(C)(C)C)C(C)=C1C2(C)C [PCMI-34] | 90.6 | 95 | 104 | 73.5 | 81.4 | 94.7 | 86.9 | 60.1 | 98.1 | 89.2 | 102 | 92.9 | 88.7 | 101 | 81.2 | 86.2 | 10.7 | 11.8 | 9.54 | 67.4 | IC50 ([4]; read-out: MCF-7(IC50, nM)): 13.26 ± 0.12 nM; Papp B→A ([7]; Caco-2): 30.9 ×10⁻⁶ cm/s; efflux ratio ([7]; Caco-2): 1.59; Papp A→B [7, 9]: 19.4 ×10⁻⁶ cm/s; Papp A→B ([7]; Caco-2, Papp A-to-B, Caco-2): > 10 ×10⁻⁶ cm/s; recovery [7, 14]: 71.2%; recovery [7, 15]: 63.6%; membrane permeability (in words) (Caco-2 cell monolayer [8]; Caco-2 monolayer): highly permeable substrates
